Measured values: paper PMC9241669, “Allantodapsone is a Pan-Inhibitor of Staphylococcus aureus Adhesion to Fibrinogen, Loricrin, and Cytokeratin 10” (Microbiology Spectrum, 2022)
≈ marks a conversion by molar mass, not a printed value. Where “and” joins values, the source holds several entries; their conditions need not be identical. Equal values may be shown once. Entries after “also recorded” stand apart in the source; their conditions may differ.

How the values were obtained:
S. aureus Newman [1] = experiment: Adhesion of S. aureus Newman to GST-L2v loricrin; format: cell-based, Staphylococcus aureus; conditions: for activity in adhesion of S. aureus Newman to L2v loricrin: screened at 80 μM (Fig. 4D)
Method: FIG 4 Allantodapsone inhibits S. aureus adhesion to loricrin and cytokeratin 10. Dose-response curve for adhesion of S. aureus Newman to GST-L2v loricrin (A) and CK10 (C). (B) Inhibition of recombinant ClfB N2N3 binding to immobilized GST-L2v loricrin by allantodapsone. (D) Inhibition of S. aureus Newman adhesion to GST-L2v loricrin by allantodapsone derivatives. Purified GST-L2v or CK10 were used to coat plates at 4°C overnight. Wells were washed with PBS and blocked with 1% BSA. Washed bacteria (OD600 of 1) were mixed with allantodapsone or vehicle control before being added to the wells and incubated for 2 h at 37°C. Adherent cells were washed, fixed, and stained with crystal violet, and wells further washed. The dye was dissolved in acetic acid, and the absorbance measured at 570 nm. GST-L2v was used at 20 μM in A and D. CK10 was used at 10 nM. Test compounds were incubated with bacteria at 80 μM and normalized to the DMSO vehicle control in D. For data presented in B, recombinant ClfB was incubated with allantodapsone (100 μM) or DMSO (1%) for 30 min prior to being added to wells coated with recombinant GST-L2v loricrin. Bound ClfB was detected using peroxidase-conjugated anti-His monoclonal antibody in an ELISA. The graphs shown are representative of three independent experiments. Statistics were carried out using one-way ANOVA followed by the Dunnett’s posttest using GraphPad Prism version 9.0.
(§1) Adhesion assays were carried out according to Hartford et al. ([37]). Briefly, plates were coated with 10 μg/mL fibrinogen (Calbiochem, Darmstadt, Germany) or 20 μg/mL fibronectin (Sigma-Aldrich, Ireland) for 2 h at 37°C or for 16 h at 4°C. Plates were blocked with 1% BSA at 37°C for 1 h and washed 3 times in PBS. Washed bacteria were incubated at 37°C for 2 h. Adherent bacteria were washed three times in PBS and fixed in 5–9% formaldehyde at room temperature for 30 min. Wells were washed three times in PBS and stained using 5% crystal violet for 20 min. Wells were washed three times in PBS, and the crystal violet solubilized using 5% acetic acid. Plates were read at 570 nm on a Wallac Victor2, (Shelton, CT, USA). The minimum adhesion inhibitory concentration (MAIC) was determined as the concentration inhibiting greater than 90% bacterial adhesion.

S. aureus Newman [2] = experiment: Adhesion of S. aureus Newman to immobilized fibrinogen (crystal violet); format: cell-based, Staphylococcus aureus; conditions: for inhibition of adhesion to fibrinogen: S. aureus Newman, stationary and exponential phase, compounds screened at 70 μM (Fig. 2); for activity of individual fragments of allantodapsone: assay not specified
Method: FIG 1 Allantodapsone inhibits S. aureus Newman adhesion to fibrinogen. Dose response curves for S. aureus Newman (A), L. lactis ClfA (B), and L. lactis ClfB (C) adhesion to fibrinogen. Fibrinogen was used to coat plates at 4°C overnight at 10 μg/mL. Wells were washed with PBS and blocked with 1% BSA. Washed bacteria (OD600 of 1) were mixed with the relevant concentration of allantodapsone or vehicle control (DMSO) for 5 min, and added to the wells, incubating for 2 h at 37°C. Adherent cells were washed, fixed, and stained with crystal violet, and wells further washed. The dye was dissolved in acetic acid and the absorbance measured at 570 nm. IC50 values were generated using GraphPad Prism 9.0 GraphPad software, San Diego, CA. Data are representative of three experiments with error presented as SEM.
(§2) FIG 2 Allantodapsone inhibits S. aureus adhesion to fibrinogen. (A) S. aureus Newman stationary phase and (B) exponential phase. (C) S. aureus SH1000 stationary phase and (D) exponential phase bacteria. Fibrinogen was used to coat plates at 4°C overnight at 10 μg/mL. Wells were washed with PBS and blocked with 1% BSA. Washed bacteria (OD600 of 1) were mixed with the relevant concentration of allantodapsone or vehicle control for 5 min, and added to the wells, incubating for 2 h at 37°C. Adherent cells were washed, fixed, and stained with crystal violet, and wells further washed. The dye was dissolved in acetic acid and the absorbance measured at 570 nm. Compounds were screened at a concentration of 70 μM and compared to their vehicle control. Statistical analysis was carried out using repeated measures ANOVA followed by multiple comparisons Dunnett’s tests using GraphPad PRISM. **, P ≤ 0.01; ***, P ≤ 0.001; ****, P ≤ 0.0001 (n = 3).
as §1
(§3) Compounds were added to the bacterial suspension prior to addition to the wells. In each experiment, vehicle controls were prepared using the same volume of vehicle for the matching test compound.

S. aureus SH1000 = experiment: Adhesion of S. aureus SH1000 to immobilized fibrinogen (crystal violet); format: cell-based, Staphylococcus aureus; conditions: S. aureus SH1000, stationary and exponential phase; compounds screened at 70 μM (Fig. 2)
Method: as §2, §1, §3

S. aureus Newman [3] = experiment: Antimicrobial assay (bacterial growth in BHI broth); format: cell-based, Staphylococcus aureus; conditions: for MIC90: Staphylococcus aureus, S. aureus Newman, overnight growth in BHI broth; for inhibition of bacterial growth (words): overnight in BHI broth, allantodapsone up to 100 μM, versus vehicle control
Method: S. aureus was grown in BHI broth shaking overnight at 37°C in the presence of a range of concentrations of allantodapsone, dapsone, or ampicillin as control. Absorbance was measured the following day at 570 nm. Data have been normalized to the relevant vehicle control (1% DMSO for allantodapsone and dapsone and water for ampicillin). […] Error bars represent SEM.
S. aureus was grown overnight in BHI broth at 37°C in shaking incubator. Wells were inoculated with 10 μL of overnight culture into 90 μL of broth containing the test compounds or controls. A growth control containing no agents was used (positive control), a sterility control of broth alone was included, and vehicle controls were included for each test compound. Plates were incubated overnight at 37°C and absorbance measured at 570 nm the following day using a Wallac Victor2, (Shelton, CT, USA).

MSSA isolates = conditions: cited from earlier work

Compound | activity in adhesion of S. aureus Newman to L2v loricrin (S. aureus Newman [1]) | inhibition of adhesion to fibrinogen (S. aureus Newman [2]) | activity of individual fragments of allantodapsone (S. aureus Newman [2]) | inhibition of adhesion to fibrinogen (S. aureus SH1000) | MIC90 (S. aureus Newman [3]) | inhibition of bacterial growth (words) (S. aureus Newman [3]) | further results
N=C(N)Nc1ccc(Oc2cccc(NC(=N)N)c2)cc1 [Compound 10] | loss of activity | – | – | – | – | – | –
N=C(N)Nc1ccc(Oc2cccc(NC(=O)c3ccc(Cl)c(C(F)(F)F)c3)c2)cc1 [Compound 11] | demonstrated activity; also recorded: maintained some activity | – | – | – | – | – | adhesion to L2v loricrin, normalized to DMSO vehicle control (S. aureus Newman [1]; test compound at 80 μM, S. aureus Newman): 61.3% ± 7
O=C1NC(=O)C(=O)C(=O)N1 [alloxan] | – | Neither dapsone nor alloxan had any inhibitory activity; also recorded: did not have any inhibitory effect | did not show any activity | Neither dapsone nor alloxan had any inhibitory activity | – | – | –
CC1(C)S[C@@H]2[C@H](NC(=O)[C@H](N)c3ccccc3)C(=O)N2[C@H]1C(=O)O [ampicillin] | – | – | – | – | 0.03 µM and 0.01 µg/mL | pronounced inhibitory effect on growth | MIC90 reported for S. aureus isolates (MSSA isolates; microdilution method in MSSA isolates): 0.015 to 4 µg/mL
Nc1ccc(S(=O)(=O)c2ccc(N)cc2)cc1 [dapsone] | – | Neither dapsone nor alloxan had any inhibitory activity; also recorded: did not have any inhibitory effect | did not show any activity | Neither dapsone nor alloxan had any inhibitory activity | 0.3 µM and 0.1 µg/mL | inhibited growth | MIC90 previously determined in MSSA strains (MSSA isolates; MSSA strains): 128 µg/mL (≈ 515 µM); range printed in parentheses after MIC90 in MSSA strains (MSSA isolates; MSSA strains): 32 to 256 µg/mL
O=C1NC(=O)C(=NO)C(=O)N1 [violuric acid] | – | – | did not show any activity | – | – | – | –
